Measured values as given in paper PMC4546552 (ACS chemical biology, 2015).
Where two headings read alike, the source gives them in different places.

Assays:
[1] = tested on: carrageenan-induced inflammation; experiment: Carrageenan-induced inflammation in mice; assay type: in vivo, mouse
r-NAAA = biological target: T1, r-NAAA (Rattus norvegicus, UniProt Q5KTC7); experiment: NAAA acylation in r-NAAA-overexpressing HEK-293 cells; assay type: cell-based; conditions: HEK-293 cells overexpressing r-NAAA, 10 μM, 1 h
T1 sequence (Q5KTC7 131-362 limits assumed): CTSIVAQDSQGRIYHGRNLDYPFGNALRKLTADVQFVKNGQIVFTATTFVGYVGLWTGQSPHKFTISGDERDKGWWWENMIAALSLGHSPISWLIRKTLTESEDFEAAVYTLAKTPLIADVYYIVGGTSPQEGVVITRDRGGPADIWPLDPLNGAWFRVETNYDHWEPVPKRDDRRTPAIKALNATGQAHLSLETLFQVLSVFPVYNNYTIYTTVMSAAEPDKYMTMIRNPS
T1 sequence (Q5KTC7 34-130 limits assumed): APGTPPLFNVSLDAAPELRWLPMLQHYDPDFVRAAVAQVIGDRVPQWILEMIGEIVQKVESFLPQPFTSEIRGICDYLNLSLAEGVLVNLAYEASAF

rat NAAA (r-NAAA) = biological target: T2, rat NAAA (r-NAAA) (Rattus norvegicus, UniProt Q5KTC7); conditions: cited from earlier work
T2 sequence (Q5KTC7 131-362 limits assumed): T1 sequence (Q5KTC7 131-362 limits assumed)
T2 sequence (Q5KTC7 34-130 limits assumed): T1 sequence (Q5KTC7 34-130 limits assumed)

human NAAA (h-NAAA) = biological target: T3, human NAAA (h-NAAA) (Homo sapiens, UniProt Q02083); conditions: read-out: IC50 for human NAAA (h-NAAA); cited from earlier work
T3 sequence (Q02083 29-359): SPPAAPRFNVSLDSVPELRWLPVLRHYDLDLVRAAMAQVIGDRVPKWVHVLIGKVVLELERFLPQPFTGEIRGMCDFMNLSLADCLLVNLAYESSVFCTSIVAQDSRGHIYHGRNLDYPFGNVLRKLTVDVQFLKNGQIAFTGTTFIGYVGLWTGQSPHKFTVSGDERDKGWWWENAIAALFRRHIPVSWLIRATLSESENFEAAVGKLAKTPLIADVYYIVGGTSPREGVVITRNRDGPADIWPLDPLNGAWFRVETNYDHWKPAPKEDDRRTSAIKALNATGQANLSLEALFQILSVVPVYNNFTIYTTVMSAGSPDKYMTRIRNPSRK

[2] = cited from earlier work
rodent models = conditions: cited from earlier work
[3] = Stability in rat liver microsomes; assay type: in vitro ADME
[4] = Stability in mouse liver microsomes; assay type: in vitro ADME
rat FAAH = biological target: T4, rat FAAH (Rattus norvegicus, UniProt P97612); experiment: Rat FAAH inhibition; assay type: biochemical
T4 sequence (P97612 1-579): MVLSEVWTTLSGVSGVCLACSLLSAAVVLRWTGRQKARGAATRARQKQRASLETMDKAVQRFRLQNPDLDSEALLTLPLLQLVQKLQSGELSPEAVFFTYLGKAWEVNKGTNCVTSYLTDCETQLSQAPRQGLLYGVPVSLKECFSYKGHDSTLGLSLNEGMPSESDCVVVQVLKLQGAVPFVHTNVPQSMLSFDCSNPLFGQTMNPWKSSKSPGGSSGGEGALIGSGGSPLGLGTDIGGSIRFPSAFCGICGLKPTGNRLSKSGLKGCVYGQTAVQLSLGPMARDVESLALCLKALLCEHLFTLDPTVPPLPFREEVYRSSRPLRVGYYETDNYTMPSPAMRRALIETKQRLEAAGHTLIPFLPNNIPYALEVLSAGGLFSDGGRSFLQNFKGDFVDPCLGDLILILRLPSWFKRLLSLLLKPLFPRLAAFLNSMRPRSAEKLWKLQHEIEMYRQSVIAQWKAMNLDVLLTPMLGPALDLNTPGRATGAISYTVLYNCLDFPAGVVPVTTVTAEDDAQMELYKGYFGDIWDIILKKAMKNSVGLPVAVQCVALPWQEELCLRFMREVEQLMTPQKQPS

[5] = tested on: panel of 28 biologically relevant targets comprising lipid-metabolizing and inflammation-related enzymes; experiment: CEREP selectivity panel, enzymes; assay type: biochemical; conditions: 10 μM
[6] = tested on: 79 commonly targeted ion channels, membrane transporters and receptors; experiment: CEREP selectivity panel, channels, transporters, receptors; assay type: binding; conditions: 10 μM
[7] = Pharmacokinetic analyses in mice, intravenous; assay type: in vivo; conditions: mouse, plasma, 3 mg/kg
NAAA [8] = biological target: T5, NAAA (Rattus norvegicus, UniProt Q5KTC7); experiment: In vivo NAAA acylation in rat lungs; conditions: rats, intravenous, 10 mg kg^−1
T5 sequence (Q5KTC7 131-362 limits assumed): T1 sequence (Q5KTC7 131-362 limits assumed)
T5 sequence (Q5KTC7 34-130 limits assumed): T1 sequence (Q5KTC7 34-130 limits assumed)

NAAA [9] = biological target: T6, NAAA (Mus musculus, UniProt Q9D7V9); experiment: Ex vivo mouse NAAA activity after dosing; assay type: in vivo; conditions: mice
T6 sequence (Q9D7V9 34-362): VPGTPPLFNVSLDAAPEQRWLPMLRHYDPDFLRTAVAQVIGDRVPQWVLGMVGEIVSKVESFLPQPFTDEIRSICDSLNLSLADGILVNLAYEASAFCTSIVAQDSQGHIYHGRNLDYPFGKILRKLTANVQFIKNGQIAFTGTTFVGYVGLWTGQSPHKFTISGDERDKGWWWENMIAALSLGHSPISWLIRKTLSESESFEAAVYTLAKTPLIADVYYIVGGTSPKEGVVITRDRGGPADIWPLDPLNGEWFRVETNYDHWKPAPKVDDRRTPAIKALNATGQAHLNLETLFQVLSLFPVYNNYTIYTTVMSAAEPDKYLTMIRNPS

PEA and OEA levels = PEA and OEA levels in mouse lungs; assay type: in vivo; conditions: 30 mg kg^−1 oral
[10] = tested on: LPS-activated human macrophages; experiment: LPS-activated human monocyte-derived macrophages; assay type: cell-based

**Q.** Which “carrageenan-induced lung MPO activity, effect relative to maximal effect of 6” value ([1]; mice, 0.5 mg kg^−1, intraperitoneal) does the source give for `C[C@@H]1C[C@H]2[C@@H]3CCC4=CC(=O)C=C[C@]4(C)[C@@]3(F)[C@@H](O)C[C@]2(C)[C@@]1(O)C(=O)CO` [dexamethasone, reference compound] here?
**A.** comparable

**Q.** With `O=C(N[C@@H]1CNC1=O)OCCCCC1CCCCC1` [Compound 7, 4-Cyclohexylbutyl-N-[(R)-2-oxoazetidin-3-yl]carbamate] as the molecule, how does the “covalent adduct with N-terminal cysteine (Cys131) of NAAA” value (r-NAAA) read?
**A.** only negligible amounts of the adduct

**Q.** And the “carrageenan-induced TNF-α levels in pleural exudate” value ([1]; mice, 30 mg kg^−1, oral)?
**A.** no such effect

**Q.** What about the “carrageenan-induced lung tissue myeloperoxidase (MPO) activity” value ([1]; mice, 30 mg kg^−1, oral) of the same molecule?
**A.** no such effect

**Q.** With `O=C(CCc1ccccc1)N[C@H]1COC1=O` [Compound 3, N-[(3S)-2-oxo-3-oxetanyl]-3-phenylpropanamide] as the molecule, how does the IC50 (rat NAAA (r-NAAA); read-out: IC50 for rat NAAA (r-NAAA)) read?
**A.** ~420 nM

**Q.** For `C[C@@H]1OC(=O)[C@@H]1NC(=O)OCCCCCc1ccccc1` [Compound 4], which IC50 (rat NAAA (r-NAAA); read-out: IC50 for r-NAAA) is on record?
**A.** ~50 nM

**Q.** What about the IC50 (human NAAA (h-NAAA)) of the same molecule?
**A.** ~7 nM

**Q.** What about the t1/2 in plasma [2] of the same molecule?
**A.** < 1 min

**Q.** And the “analgesic properties in rodent models” value (rodent models)?
**A.** marked analgesic properties

**Q.** For `O=C(N[C@H]1CNC1=O)OCCCCC1CCCCC1` [Compound 6, 4-Cyclohexylbutyl-N-[(S)-2-oxoazetidin-3-yl]carbamate], which half-life [3] is on record?
**A.** < 5 min

**Q.** And the half-life [4]?
**A.** < 5 min

**Q.** What about the IC50 (rat FAAH) of the same molecule?
**A.** > 100000 nM

**Q.** What about the “interaction with panel of 28 enzymes” value [5] of the same molecule?
**A.** did not interact

**Q.** And the “effect on 79 ion channels, membrane transporters and receptors” value [6]?
**A.** no significant effect

**Q.** And the Cmax [7]?
**A.** 1610 ng/mL

**Q.** And the Vd [7]?
**A.** 3.1 L/kg

**Q.** And the clearance [7]?
**A.** 139 mL/min/kg

**Q.** And the half-life [7]?
**A.** ~15 min

**Q.** And the “covalent adduct with N-terminal cysteine (Cys131) of NAAA” value (r-NAAA)?
**A.** covalent product

**Q.** And the “formation of covalent NAAA adduct in lungs” value (NAAA [8])?
**A.** rapid formation of covalent adduct

**Q.** And the “inhibition of NAAA activity in various organs” value (NAAA [9]; intraperitoneal 3–30 mg kg^−1, 2 h)?
**A.** substantial inhibition of NAAA activity

**Q.** And the “inhibition of NAAA activity ex vivo” value (NAAA [9]; oral 30 mg kg^−1, 2 h)?
**A.** substantial inhibition of NAAA activity

**Q.** And the “OEA levels in lungs” value (PEA and OEA levels; carrageenan-challenged mice)?
**A.** markedly increased

**Q.** What about the “PEA levels in lungs” value (PEA and OEA levels; carrageenan-challenged mice) of the same molecule?
**A.** markedly increased

**Q.** What about the “OEA levels in lungs” value (PEA and OEA levels; naïve mice) of the same molecule?
**A.** no effect

**Q.** And the “PEA levels in lungs” value (PEA and OEA levels; naïve mice)?
**A.** no effect

**Q.** What about the “anti-inflammatory effects under antagonism of CB1 or CB2 receptors” value ([1]; AM251 or AM630 1 mg kg^−1 i.p. 30 min before 6) of the same molecule?
**A.** did not prevent the anti-inflammatory effects

**Q.** And the “carrageenan-induced TNF-α levels in pleural exudate” value ([1]; mice, 1–30 mg kg^−1, oral)?
**A.** prevented both responses in a dose-dependent manner

**Q.** And the “carrageenan-induced lung tissue myeloperoxidase (MPO) activity” value ([1]; mice, 1–30 mg kg^−1, oral)?
**A.** prevented both responses in a dose-dependent manner

**Q.** What about the “LPS-induced expression of iNOS” value ([10]; CD68+ human macrophages, LPS 100 ng mL^−1, flow cytometry) of the same molecule?
**A.** significant concentration-dependent inhibition

**Q.** What about the “LPS-induced release of TNF-α” value ([10]; CD68+ human macrophages, LPS, enzyme-linked immunoassay) of the same molecule?
**A.** significant concentration-dependent inhibition

**Q.** And the “LPS-induced TNF-α expression” value ([10]; human macrophages, LPS, flow cytometry)?
**A.** Concentration-dependent effects
